Assay results taken from ChEMBL document CHEMBL1201862, “PubChem BioAssay data set” (2004).
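Briefly, cells in 96-well plates were exposed to five compound concentrations for 48 h, and endpoints were estimated by linear interpolation. GI50 marks 50% less growth.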 The source made the active and inactive calls. Cut-off read from the data, not from the text of the source: active = GI50 up to about 1.1 µM and inactive = higher.

Key:
Assay in all cases: DTP human tumour cell line panel, 48 h
K562 = test system: K562
MCF7 = test system: MCF7
A549 = test system: A549
OVCAR-4 = test system: OVCAR-4
NCI-H226 = test system: NCI-H226
MDA-MB-231 = test system: MDA-MB-231
SK-MEL-2 = test system: SK-MEL-2
SNB-19 = test system: SNB-19
U-251 = test system: U-251
NCI-H522 = test system: NCI-H522
SN12C = test system: SN12C
M14 = test system: M14
786-0 = test system: 786-0
HOP-62 = test system: HOP-62
RXF 393 = test system: RXF 393
COLO 205 = test system: COLO 205
DU-145 = test system: DU-145
HOP-92 = test system: HOP-92
EKVX = test system: EKVX
MOLT-4 = test system: MOLT-4

Measured: GI50

NS(=O)(=O)c1cc2c(cc1Cl)NC(Cc1ccccc1)NS2(=O)=O (configuration not stated) [BENZYLHYDROCHLOROTHIAZIDE]
inactive: K562 63.1 µM | MCF7 60.4 µM | A549 > 100 µM | OVCAR-4 > 100 µM | NCI-H226 > 100 µM | MDA-MB-231 > 100 µM | SK-MEL-2 > 100 µM | SNB-19 > 100 µM | U-251 > 100 µM | NCI-H522 > 100 µM | SN12C > 100 µM | M14 > 100 µM | 786-0 > 100 µM | HOP-62 > 100 µM | RXF 393 > 100 µM | COLO 205 > 100 µM | DU-145 > 100 µM | HOP-92 > 100 µM | EKVX > 100 µM

c1ccc(C[n+]2ccc3c(c2)CCCC3)cc1
inactive: K562 11.7 µM | MCF7 52.1 µM | MOLT-4 > 100 µM | A549 77.3 µM | OVCAR-4 56 µM | NCI-H226 > 100 µM | MDA-MB-231 > 100 µM | SK-MEL-2 84.3 µM | SNB-19 49.5 µM | U-251 55.1 µM | SN12C > 100 µM | M14 95.7 µM | 786-0 > 100 µM | HOP-62 > 100 µM | RXF 393 > 100 µM | COLO 205 66.5 µM | DU-145 > 100 µM | HOP-92 > 100 µM | EKVX 10.6 µM

COc1ccc2c(c1O)C13CCN(C)C(C2)C1CCC1(C3)OCCO1 (configuration not stated)
inactive: MCF7 > 100 µM | MOLT-4 > 100 µM | A549 > 100 µM | OVCAR-4 > 100 µM | NCI-H226 > 100 µM | MDA-MB-231 > 100 µM | SK-MEL-2 > 100 µM | SNB-19 > 100 µM | U-251 > 100 µM | NCI-H522 > 100 µM | SN12C > 100 µM | M14 > 100 µM | 786-0 > 100 µM | HOP-62 > 100 µM | RXF 393 > 100 µM | COLO 205 > 100 µM | DU-145 > 100 µM | HOP-92 > 100 µM | EKVX > 100 µM

COc1ccc(C2CC(c3c(O)ccc4ccccc34)=NN2C(C)=O)cc1OC (configuration not stated)
inactive: K562 13.7 µM | MCF7 23.7 µM | MOLT-4 19.3 µM | A549 24.9 µM | OVCAR-4 44.3 µM | NCI-H226 36.2 µM | MDA-MB-231 18.5 µM | SK-MEL-2 19.3 µM | U-251 29.6 µM | NCI-H522 31.7 µM | SN12C 26.5 µM | M14 24.1 µM | 786-0 33.3 µM | HOP-62 26.9 µM | RXF 393 24.1 µM | COLO 205 17 µM | DU-145 36.2 µM | HOP-92 27.8 µM

COc1cc(C2SC(=N)Nc3c2c(C)nn3C(=O)c2ccccc2O)cc(OC)c1OC (configuration not stated)
inactive: K562 2.81 µM | MCF7 > 10 µM | MOLT-4 4 µM | A549 4.24 µM | OVCAR-4 4.89 µM | NCI-H226 > 10 µM | MDA-MB-231 7.89 µM | SK-MEL-2 > 10 µM | SNB-19 8.71 µM | U-251 6.76 µM | SN12C 9.18 µM | M14 5.92 µM | 786-0 9.14 µM | HOP-62 6.15 µM | RXF 393 8.51 µM | COLO 205 > 10 µM | DU-145 5.12 µM | HOP-92 3.12 µM | EKVX > 10 µM

CC(C)Oc1c(C2(c3ccccc3O)SCCCS2)c(=O)c1=O
inactive: MCF7 > 100 µM | MOLT-4 57.5 µM | A549 > 100 µM | OVCAR-4 > 100 µM | NCI-H226 63.5 µM | MDA-MB-231 69.2 µM | SK-MEL-2 > 100 µM | SNB-19 73.3 µM | U-251 > 100 µM | NCI-H522 23.6 µM | SN12C > 100 µM | M14 > 100 µM | 786-0 > 100 µM | HOP-62 > 100 µM | RXF 393 75.9 µM | COLO 205 > 100 µM | DU-145 93.3 µM | HOP-92 19.7 µM | EKVX 55.5 µM

CC1(C)CC[C@]2(C)CC=C3[C@]4(C)CC[C@H]5C(C)(C)C(=O)CC[C@]5(C)[C@H]4CC[C@@]3(C)[C@H]2C1
inactive: MCF7 > 100 µM | MOLT-4 > 100 µM | A549 > 100 µM | OVCAR-4 > 100 µM | NCI-H226 > 100 µM | MDA-MB-231 > 100 µM | SK-MEL-2 > 100 µM | SNB-19 > 100 µM | U-251 > 100 µM | NCI-H522 > 100 µM | SN12C > 100 µM | M14 > 100 µM | 786-0 > 100 µM | HOP-62 > 100 µM | RXF 393 > 100 µM | COLO 205 > 100 µM | DU-145 > 100 µM | HOP-92 > 100 µM | EKVX > 100 µM
